According to patent US9193954B2, “Methods and compositions for mesenchymal stem cell proliferation” (priority 2011, dated 2015):

Key:
Type in all cases: cell-based, human
hMSCs [1] = experiment: hMSC cell layer thickness by confocal microscopy; details: for cell layer thickness: day 40
Protocol: hMSC cell layer thickness was measured using the z-directional controls of a FV1000 Olympus Laser Scanning Confocal Microscope. On days 1, 14, and 40 cells, seeded on optically clear glass bottom 24-well culture plates (MatTek, Ashland, Mass.) were stained using a fluorescent LIVE/DEAD Viability/Cytotoxicity kit (Invitrogen). The focal plane of the microscope was adjusted to the cell-plate interface and set to zero. Using the z-directional controls the focal plane was raised until the live fluorescently stained cells were no longer visible at which point the cell layer thickness was recorded.

[2] = tested on: markers of undifferentiated stem cells, Sox2, Nanog, and Oct4; experiment: RT-PCR of Sox2, Nanog, Oct4 in two-dimensionally cultured BIO-treated hMSCs, normalized to β-actin
Protocol: (§1) RT-PCR was used to assess gene expression of hMSCs over time. At days: 0 (before BIO treatment), 1, 3, 6, 19, 29, 34, 37, and 41, samples were lysed and total RNA was isolated (ENZA Total RNA Kit, Omega). Reverse transcription was performed using the iScript cDNA Synthesis Kit (Bio-Rad). The reverse transcription reaction was incubated at 25° C. for 5 min, 42° C. for 30 min, and terminated at 85° C. for 5 min. PCR was performed using a CFX96 Real-Time PCR System (Bio-Rad), monitoring sybrgreen products (SsoFastEvaGreen Master Mix, Bio-Rad). Primers for β-actin, sex determining region Y-box 2 (Sox2), Nanog homobox (Nanog), and octamer-binding transcription factor 4 (Oct4), core-binding factor subunit alpha-1 (Cbfa1, also known as Runx2), sex determining region Y-box 9 (Sox9), and peroxisome proliferator-activated receptor gamma (PPARγ) were used (Table 2). The PCR parameters used were as follows: hold at 95° C. for 5 min, followed by 40 cycles of: 95° C. for 15 sec denaturation, 60° C. (β-actin, Sox2, Sox9), or 57° C. (Nanog, Oct4, Cbfa1), or 55° C. (PPARγ) for 60 sec annealing, and 72° C. for 20 sec extension. Threshold cycle (CT) analysis was used to quantify PCR products normalized to the cellular housekeeping gene β-actin. Relative gene quantification was performed using the Pfaffl Method, taking into account the variation between primer efficiencies.
To more closely examine BIO's effects on hMSCs gene expression profiles for the markers of undifferentiated stem cells sex determining region Y-box 2 (Sox2), Nanog homobox (Nanog), and octamer-binding transcription factor 4 (Oct4) were monitored and normalized to the housekeeping gene β-actin. […] RNA was collected just before, and 1, 3, 6, 19, 27, 34, 37, and 41 days after the BIO treatment Results were quantified over time and again, normalized to both the housekeeping gene β-actin and untreated controls (0 μM BIO), and the results are shown in FIG. 5.

hMSCs [3] = experiment: Media induced differentiation of BIO-treated hMSCs (histology and Cbfa1, Sox9, PPARγ expression)
Protocol: Dev Cell. […] After 24 hrs cell media was replaced and cells were allowed to proliferate over three weeks. After three weeks BIO-treated hMSCs were cultured for three weeks in standard differentiation-inducing media (FIG. 6a). For osteogenic differentiation hMSCs were grown in normal growth media with osteogenic supplements (100 nM dexamethasone, 10 mM β-glycerophosphate, 50 μM ascorbic acid-2-phosphate). […] Differentiated two-dimensional cell cultures were fixed in 24-well tissue culture plates for 48 hrs in 4% paraformaldehyde and the monolayers were stained for mineralization (von Kossa, osteogenic), or the presence of lipid droplets (oil red o, adipogenic). Undifferentiated cultures were also stained as negative controls. Images were taken on a Motic AE20 inverted light microscope using a Canon EOS Rebel T2i with an eyepiece modification.
For chondrogenic differentiation, hMSCs were seeded at a density of 5,000 cell/cm^2 in T-75 tissue culture flasks, allowed to become adherent, and treated with BIO containing growth media for 24 hrs. After 24 hrs, cell media was replaced and cells were allowed to proliferate over three weeks (FIG. 6a). […] Pellet cultures were fixed for 48 hrs in 4% paraformaldehyde, cryosectioned, and stained for glycosaminoglycan production (toluidine blue, chondrogenic). Stained sections were imaged as described above.
as §1

hMSCs [4] = experiment: Two-dimensional hMSC proliferation by manual cell counts (trypan blue, hemocytometer); details: for increase in cell population compared to untreated controls: day 41, 24 hr treatment
Protocol: FIG. 4 Schematic representation of 41 day hMSC monolayer culture after 24 hr exposure to BIO-containing media (A). Cells were trypsinized and manually counted on days 0, 1, 3, 6, 19, 27, 34, 37, and 41 and shown to undergo a dose-dependent, BIO-mediated increase in proliferation (B).
hMSCs or C3H10T1/2s were seeded at a density of 5,000 cell/cm^2 in 24-well tissue culture plates (Greiner Bio-One, Monroe, N.C.) and allowed to become adherent over a period of 24 hrs prior to treatment. BIO was solubilized in dimethyl sulfoxide (DMSO) to prepare 200 and 500 μM stock solutions. 10 μL of BIO in DMSO was added to 1 mL of culture media so that the final concentrations of 0, 2, and 5 μM were achieved. The cells were cultured with BIO-containing media for 24 hrs after which media was replaced by media without BIO, as illustrated in FIGS. 4a and 7a (two-dimensional treatment and three-dimensional treatment respectively).
During culture, hMSC viability was periodically assessed using an alamarBlue metabolic assay (AbD Serotec, UK). Culture media was replaced with a 10% alamarBlue-media solution and allowed to incubate at 37° C. for 2 hr. After incubation, alamarBlue solution was transferred to black 96-well plates and media was refreshed. Fluorescence intensity was measured using a Tecan Infinite 200 PRO plate-reader (excitation/emission: 570/600 nm). To assess hMSC proliferation, cells were trypsinized and counted using trypan blue exclusion and a hemocytometer. Average cell counts were normalized to data collected on day 0 to illustrate the effect of BIO on hMSC proliferation over time.

[5] = 5 μM BIO, adipogenic-differentiated hMSCs
[6] = 5 μM BIO, osteogenic differentiated hMSCs

## O=C1Nc2cc(Br)ccc2/C1=C1/Nc2ccccc2/C1=N\O [BIO, 6-bromoindirubin-3′-oxime]
hMSCs [1]; 2 μM BIO
  cell layer thickness: 23.5 μm
hMSCs [1]; 5 μM BIO
  cell layer thickness: 24.0 μm
hMSCs [1]; day 0 and 14
  cell layer thickness versus untreated control: no statistically significant differences
[2]; 2 μM BIO, day 1, 2D
  Nanog gene expression compared to untreated control: 5.4 fold
  Oct4 gene expression compared to untreated control: 5.1 fold
  Sox2 gene expression compared to untreated control: 7.1 fold
[2]; 2 μM BIO, day 3, 2D
  Nanog gene expression compared to untreated control: 1.0 fold
  Oct4 gene expression compared to untreated control: 3.4 fold
  Sox2 gene expression compared to untreated control: 4.4 fold
[2]; 5 μM BIO, day 1, 2D
  Nanog gene expression compared to untreated control: 15.3 fold
  Oct4 gene expression compared to untreated control: 16.9 fold
  Sox2 gene expression compared to untreated control: 96.4 fold
[2]; 5 μM BIO, day 3, 2D
  Nanog gene expression compared to untreated control: 4.8 fold
  Oct4 gene expression compared to untreated control: 9.8 fold
  Sox2 gene expression compared to untreated control: 17.7 fold
[2]; day 1, 2 uM BIO
  increase of Nanog expression relative to untreated controls: 797%
  increase of Oct4 expression relative to untreated controls: 545%
  increase of Sox2 expression relative to untreated controls: 677%
[2]; day 1, 5 uM BIO
  increase of Nanog expression relative to untreated controls: 2247%
  increase of Oct4 expression relative to untreated controls: 1800%
  increase of Sox2 expression relative to untreated controls: 9180%
[2]; day 3, 2 uM BIO
  increase of Nanog expression relative to untreated controls: 71%
  increase of Oct4 expression relative to untreated controls: 263%
  increase of Sox2 expression relative to untreated controls: 312%
[2]; day 3, 5 uM BIO
  increase of Nanog expression relative to untreated controls: 324%
  increase of Oct4 expression relative to untreated controls: 755%
  increase of Sox2 expression relative to untreated controls: 1238%
hMSCs [3]; 5 μM BIO 24 hrs, 21 days proliferation, 3 weeks differentiation media
  histological analysis of differentiation (von Kossa, toluidine blue, oil red o), BIO-treated versus untreated: uniform mineralization
hMSCs [3]; [5]
  PPARγ expression over undifferentiated controls: 31.2 fold
  increase in PPARγ expression compared to differentiated non-BIO-treated (0 μM) controls: 5.0 fold
hMSCs [3]; 5 μM BIO, chondrogenic-differentiated hMSCs, not statistically significant
  Sox9 expression compared with undifferentiated controls: 0.6 fold
hMSCs [3]; [6]
  Cbfa1 expression over undifferentiated controls: 3.9 fold
  increase in Cbfa1 expression compared to differentiated non-BIO-treated (0 μM) controls: 2.1 fold
hMSCs [4]; 2 uM BIO
  2D proliferation relative to untreated control: 155%
hMSCs [4]; 2 μM BIO
  increase in cell population compared to untreated controls: 4.5 fold
hMSCs [4]; 5 uM BIO
  2D proliferation relative to untreated control: 172%
hMSCs [4]; 5 μM BIO
  increase in cell population compared to untreated controls: 5.5 fold
hMSCs [4]; BIO-treated hMSCs, concentration and day not stated
  hMSC population increase: ~4 fold
